Reference: patent publication US10414721B1, “Inhibitor of endocannabinoid cellular reuptake” (University of Bern, priority 2018, dated 2019)
Where two headings read alike, the source gives them in different places.

Legend:
AEA uptake in U937 cells = assay: AEA uptake inhibition in U937 cells; type: cell-based; conditions: for IC50 / IC50 for AEA uptake inhibition: U937 cells
Protocol: Based on the natural product (2E,4E)-N-isobutylamidedodeca-2,4-dienamide from the medicinal plant E. purpurea as a starting point, a library of 634 of analogs and derivatives with varying alkyl chain length was synthesized, and structure of the head group moiety analyzed. All new derivatives were tested for AEA uptake inhibition in U937 cells using a high-content screening assay.
(§1) All radioactivity-based AEA and 2-AG uptake and release assays performed in U937, and HMC-1 cells were carried out using two different assay formats as previously reported. AEA and 2-AG uptake assay in Neuro2a and primary mouse cortical neurons were performed with a different method disclosed in Chicca 2017.

[1] = 14C-WOBE437 saturation binding to U937 membranes; conditions: for competition with 14C-WOBE437 binding: brain and U937 membranes
Protocol: (§2) In addition to their effects on AEA uptake, the inhibition of FAAH was thoroughly investigated for all nanomolar inhibitors. […] The lack of significant FAAH inhibition by WOBE437 was established in different assay systems using human recombinant enzyme, cell and brain homogenates. […] Importantly, WOBE437 (1 μM) inhibited AEA uptake also in primary mouse cortical neurons by 50% after 2-7 min of incubation with a smaller inhibition (20-35%) upon longer incubation (10-20 min, FIG. 1F). […] In Neuro2a cells, incubation with WOBE437 (5 μM) for 2 and 5 min reduced overall uptake by 40%. (FIG. 1G). […] Then cells were treated with radiolabeled ^14C-WOBE437 to investigate the cellular penetration of the compound. In U937 cells, the vast majority of the radioactive signal was collected in the extracellular and membrane-bound fractions (75-90%), with negligible amounts (5-9%) detected in the intracellular fraction (FIGS. 2A-D). […] In order to further investigate this point, ^14C-WOBE437 was applied to membrane preparations generated in-house from mouse brain and U937 cells. […] The Kd values are in line with the IC50 values shown in the functional AEA uptake assays in Neuro2a and U937 cells (FIGS. 1C and 1D). In further experiments, 10 nM of ^14C-WOBE437 was co-incubated with different concentrations of AEA and U937 membranes. […] Furthermore, the endocannabinoids AEA and noladin ether and the AEA uptake inhibitor OMDM-2 could compete with ^14C-WOBE437 binding in brain and U937 membranes. […] Secondary plots of the slope (Kmapp/Vmaxapp vs. [WOBE437]) and intercept (1/Vmaxapp vs. [WOBE437]) confirmed the competitive inhibition of AEA uptake.

[2] = test system: main EC degrading enzymes (FAAH, MAGL); conditions: cited from earlier work
[3] = test system: 2-AG uptake in Neuro2a cells; assay: 2-AG uptake and hydrolysis in Neuro2a cells; type: cell-based, mouse; conditions: Neuro2a cells, time course
Protocol: as §1

C57BL6/J mice = conditions: repeated administrations; cited from earlier work
CB1 receptors = conditions: repeated administrations; cited from earlier work
[4] = 14C-WOBE437 saturation binding to mouse brain membranes; conditions: mouse brain membranes
Protocol: as §2

U937 cells = assay: Localization of 14C-WOBE437 in cellular fractions of U937 cells; type: cell-based
Protocol: FIGS. 2A-D: Different initial amounts of ^14C-WOBE437 were incubated for 15 min with 1×10^6 of U937 cells at 37° C. Afterwards, cells were centrifuged and the ^14C-signal was measured from the extracellular (light grey), membrane-bound (dark grey) and intracellular (white) fraction. The results are reported in absolute amounts and as percentage of the initial amount.
The cell penetration and tissue distribution of ^14C-WOBE437 was assessed in U937 cells and C57BL6/N mice as described in Chicca 2017.

[5] = LC-MS/MS quantification of WOBE437 in tissues after i.p. injection; type: in vivo, mouse; conditions: 10 mg/kg i.p., C57BL6/N mice, after 1 h

## CCCCCCC/C=C/C=C/C(=O)NCCc1cccnc1 [2-(pyridin-3-yl)]ethyl]
AEA uptake in U937 cells; 100 nM total AEA
  IC50: 101 nM
  IC50 for AEA uptake inhibition: nanomolar range

## CCCCCCC/C=C/C=C/C(=O)NCCO [(2E,4E)-dodecadienoyl ethanolamine]
AEA uptake in U937 cells
  IC50: 3470 nM

## CCCCC/C=C\C/C=C\C/C=C\C/C=C\CCCC(=O)NCCO [AEA, N-arachidonoylethanolamine]
[1]; 10 nM 14C-WOBE437 co-incubated with increasing AEA
  effect on 14C-WOBE437 binding curve: increase of Kd values, while not significantly modifying Bmax values
[1]
  competition with 14C-WOBE437 binding: could compete

## CCCCC/C=C\C/C=C\C/C=C\C/C=C\CCCC(=O)Nc1ccc(O)cc1 [AM404, N-(4-hydroxyphenyl)arachidonamide]
[2]; h/rFAAH or hMAGL
  substrate of FAAH or MAGL: substrates for h/rFAAH or hMAGL

## O=C(Oc1ccc([N+](=O)[O-])cc1)N1CCC(C(O)(c2ccc3c(c2)OCO3)c2ccc3c(c2)OCO3)CC1 [JZL184]
[3]
  effect on 2-AG uptake and hydrolysis: specifically inhibited hydrolysis
C57BL6/J mice
  2-AG overflow relative to basal levels: 10-12 times basal levels
CB1 receptors
  effect on CB1 receptors: desensitize CB1 receptors

## CCCCCCC/C=C/C=C/C(=O)NCCc1ccc2c(c1)OCCO2 [N-(2,3-dihydro-1,4-benzodioxin-6-yl)ethyl dodeca-2E,4E-dienamide]
AEA uptake in U937 cells
  potency for AEA uptake relative to WOBE437 (times less potent): approximately 13 times
AEA uptake in U937 cells; 100 nM total AEA
  IC50 for AEA uptake inhibition: nanomolar range

## CCCCCCCC/C=C\CCCCCCCC(=O)N[C@@H](CO)Cc1ccc(O)cc1 [OMDM-2]
[1]
  competition with 14C-WOBE437 binding: could compete

## CCCCC/C=C\C/C=C\C/C=C\C/C=C\CCCC(=O)NCc1ccoc1 [UCM707]
[2]; h/rFAAH or hMAGL
  substrate of FAAH or MAGL: substrates for h/rFAAH or hMAGL

## CCCCC/C=C\C/C=C\C/C=C\C/C=C\CCCC(=O)Nc1ccc(O)cc1C [VDM11, N-(2-methyl-4-hydroxy-phenyl)-arachidonamide]
[2]
  substrate of FAAH or MAGL: substrates for h/rFAAH or hMAGL

## CN(Cc1cccc(-c2ccncc2)c1)C(=O)Oc1ccc(-c2ccc(C(N)=O)cc2)cc1 [WWL70, reference compound]
[3]
  effect on 2-AG uptake and hydrolysis: prevented 2-AG uptake and hydrolysis occurring at later time points

## CCCCCCC/C=C/C=C/C(=O)NCCc1ccc(OC)c(OC)c1 [^14C-WOBE437]
[4]
  Bmax: 18.2±1.5 fmol/mg protein
[4]; read-out: Kd
  Kd: 15.7 ± 2.8 nM
U937 cells; 10 nM
  membrane-associated signal: 9.8 % of total signal
U937 cells; 100 nM
  membrane-associated signal: 1.7 % of total signal
U937 cells; 100 nM, 0-30 min
  cell-associated radioactive signal over time: approximately 10 % of total signal
U937 cells; 1 μM
  membrane-associated signal: 0.7 % of total signal
U937 cells; 10 μM
  membrane-associated signal: 0.7 % of total signal
U937 cells; U937 cells, 15 min, 37° C.
  radioactive signal in extracellular and membrane-bound fractions: 75-90%
  radioactive signal in intracellular fraction: 5-9%
[1]; U937 membranes
  Bmax: 15.6±1.4 fmol/mg protein
  Kd: 11.3 ± 2.4 nM
[5]
  tissue distribution of 14C signal: highest ^14C signal was measured in adipose tissue

## CCCCC/C=C\C/C=C\C/C=C\C/C=C\CCCCOC(CO)CO [noladin ether]
[1]
  competition with 14C-WOBE437 binding: could compete

## CCCCCCCC=CC=CC(=O)NCc1cccnc1 [pyridin-3-ylmethyl]
AEA uptake in U937 cells; 100 nM total AEA
  IC50: 2690 nM

## CCCCCCCC=CC=CC(=O)NCCc1ccccc1 [unsubstituted parent compound]
AEA uptake in U937 cells; 100 nM total AEA
  IC50: 1140 nM

## benzodioxole
AEA uptake in U937 cells
  potency for AEA uptake relative to WOBE437 (times less potent): approximately 13 times
